Measurements taken from US20260042764A1, “COMPOSITIONS AND METHODS FOR INHIBITION OF KRAS” (TheRas, Inc., priority 2022, published 2026).

Experiments:
[1] = molecular target: T1, Avi-KRAS G12D (1-169) GppNHp/RAF1 RBD-3xFLAG (52-151) (Homo sapiens, UniProt P01116, G12D); test: Raf1-KRAS G12D-GppNHP disruption HTRF assay (Biological Example 1); type: binding; settings: KRAS G12D, GppNHp-loaded
T1 construct: Avi-KRAS G12D (1-169)
Protocol: (§1) A protein:protein interaction (PPI) Homogeneous Time Resolved Fluorescence (HTRF) assay was used to determine the effectiveness of compounds of the present disclosure in disrupting KRAS protein and effector RAF1 binding.
(§2) The assay buffer included: 50 mM Tris pH 7.5, 100 mM NaCl, 5 mM MgCl2, 0.1% BSA, 0.01% Tween, and 10% DMSO. The bead buffer included: 50 mM Tris pH 7.5, and 0.01% Tween 20. Assay volume of 20 μL was used in a 384 well plate-low volume format.
(§3) The HTRF assay employed the following protocol:
(§4) Protein mix was prepared in assay buffer, and dispensed on plates, 10 μL per well, then incubated for 1 h at room temperature, with 700 rpm shaking, Reagents mix was prepared and dispensed on plates, 10 μL per well, then incubated for 1 h at room temperature, with 700 rpm shaking.
(§5) Data was reported as percentage of activity, with DMSO as 100%. Data was plotted and analyzed using Prism 8.

[2] = molecular target: T2, Avi-KRAS G12V (1-169) GppNHp/RAF1 RBD-3xFLAG (52-151) (Homo sapiens, UniProt P01116, G12V); test: Raf1-KRAS G12V-GppNHP disruption HTRF assay (Biological Example 1); type: binding; settings: KRAS G12V, GppNHp-loaded; Table 11
T2 construct: Avi-KRAS G12V (1-169)
Protocol: as §1, §2, §3, §4, §5

[3] = molecular target: T3, Avi-KRAS WT (1-169) GppNHp/RAF1 RBD-3xFLAG (52-151) (Homo sapiens, UniProt P01116); test: Raf1-KRAS WT-GppNHP disruption HTRF assay (Biological Example 1); type: binding; settings: KRAS WT, GppNHp-loaded; Table 11
T3 construct: Avi-KRAS WT (1-169)
Protocol: as §1, §2, §3, §4, §5

GP2d cells (KRAS G12D) = test: Cell-based pERK HTRF assay in GP2d cell (Biological Example 2); settings: GP2d (KRAS G12D) cells
Protocol: A pERK assay (Perkin Elmer) was used to determine the effectiveness of compounds in disrupting KRAS G12D protein/effector signaling in cells.
On Day 1, cells (GP2d) were seeded into 96-well plates at 3×10^4 cells/well in 80 μL complete growth media (DMEM, 10% FBS).
(§6) On Day 2, cells were treated with compounds at 0.25% DMSO. The source plate was created with compounds diluted in media at 5-fold the final assay concentration. The compounds were run in a 9-point concentration curve starting at 1 μM or in a 9-point concentration curve starting at 100 nM, with a half-log dilution between concentrations. Twenty μL was transferred onto the cell plates (final volume in wells was 100 μL). Plates were harvested after 60 min incubation by aspirating media and adding kit-supplied 1x supplemented lysis buffer to all wells (50 μL per well). Plates were then placed on a plate shaker and incubated at 850 rpm for an additional 30 min.
Antibody mixture solution was prepared by diluting aliquoted d2 and Eu Cryptate antibodies 1:20 in kit supplied detection buffer, and mixing the diluted antibodies solutions (1:1 v:v).
(§7) Samples were homogenized by pipetting up and down and then transferred (16 μL of cell lysates) from the 96-well cell culture plate to two wells of the HTRF 384-well detection plate containing the antibody solution. Plates were centrifuged (524 g for 1 min) and allowed to incubate between 4 and 24 h at room temperature. Maximum signal is reached after 4 h incubation time and remains stable over a period of 24 hours. Therefore, readings can be made between 4 and 24 h of incubation. Plates were centrifuged again (524 g for Imin), then analyzed on the EnVision plate reader using the following settings: Excitation 320 nm, Bandwidth 75 nm; Emission 615 nm, Bandwidth 85 nm; Gain 100%; Flashes 100; Lag 60 μs.

SW620 cells (KRAS G12V) = test: Cell-based pERK HTRF assay in SW620 cell (Biological Example 4)
Protocol: A pERK assay (Perkin Elmer) was used to determine the effectiveness of compounds in disrupting KRAS G12V protein/effector signaling in cells.
On Day 1, cells (SW620) were seeded into 96-well plates at 3×10^4 cells/well in 80 μL complete growth media (RPMI, 10% FBS).
as §6, with “μM,” for “μM or in a 9-point concentration curve starting at 100 nM,”, “4 h” for “60 min”
Antibody mixture solution was prepared by diluting aliquoted d2 and Eu Cryptate antibodies 1:20 in kit supplied detection buffer and mixing the diluted antibodies solutions (1:1 v:v).
as §7, with “Imin)” for “1 min)”, “Maximum signal is reached after 4 h incubation time and remains stable over a period of 24 hours. Therefore, readings can be made between 4 and 24 h of incubation.” left out, “1 min),” for “Imin),”, “En Vision” for “EnVision”

[4] = SW620 (KRAS G12V) cells, pERK HTRF, class symbols

T1 sequence (P01116 1-169 isoform P01116-2 G12D): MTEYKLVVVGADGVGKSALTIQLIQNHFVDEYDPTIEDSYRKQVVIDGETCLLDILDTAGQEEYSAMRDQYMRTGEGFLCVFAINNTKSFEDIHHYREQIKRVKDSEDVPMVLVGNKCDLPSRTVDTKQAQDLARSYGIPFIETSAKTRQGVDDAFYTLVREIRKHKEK
T3 sequence (P01116 1-169 isoform P01116-2): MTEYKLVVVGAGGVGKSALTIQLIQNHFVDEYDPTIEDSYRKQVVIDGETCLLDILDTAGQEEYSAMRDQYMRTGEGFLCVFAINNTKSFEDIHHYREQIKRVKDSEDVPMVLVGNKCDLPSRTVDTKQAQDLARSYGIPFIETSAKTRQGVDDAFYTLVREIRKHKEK
T2 sequence (P01116 1-169 isoform P01116-2 G12V): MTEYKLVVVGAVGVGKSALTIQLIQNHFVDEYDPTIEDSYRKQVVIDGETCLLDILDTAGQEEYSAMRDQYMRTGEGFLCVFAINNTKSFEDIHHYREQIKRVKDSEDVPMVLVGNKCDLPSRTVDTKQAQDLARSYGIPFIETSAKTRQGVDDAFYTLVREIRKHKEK

Row | SMILES | IC50 ([1]; Table 11) [nM] | IC50 [2] [µM] | IC50 [3] [nM] | IC50 (GP2d cells (KRAS G12D); GP2d, pERK HTRF) [nM] | also measured
1 | CN(c1nc(OCC23CCCN2CCC3)nc2c(F)c(-c3ccc(F)c4sc(N)nc34)c(C(F)(F)F)cc12)[C@H]1C[C@H](CO)C1 (atropisomer, axis not shown) [Compound 1] | 1000 to 10000 | > 10 | 1000 to 10000 | – | –
2 | CN(c1nc(OCC23CCCN2CCC3)nc2c(F)c(-c3ccc(F)c4sc(N)nc34)c(C(F)(F)F)cc12)[C@H]1C[C@@H](O)C1 (atropisomer, axis not shown) [Compound 2] | 100 to 1000 | 1 to 10 | 100 to 1000 | – | –
3 | CN(c1nc(OCC23CCCN2CCC3)nc2c(F)c(-c3ccc(F)c4sc(N)nc34)c(C(F)(F)F)cc12)[C@H]1C[C@H](O)C1 (atropisomer, axis not shown) [Compound 3] | 1000 to 10000 | 1 to 10 | 1000 to 10000 | – | –
4 | CCN(c1nc(OCC23CCCN2CCC3)nc2c(F)c(-c3ccc(F)c4sc(N)nc34)c(C(F)(F)F)cc12)[C@H]1C[C@@H](O)C1 (atropisomer, axis not shown) [Compound 7] | 1000 to 10000 | 1 to 10 | 1000 to 10000 | – | –
5 | Nc1nc2c(-c3c(C(F)(F)F)cc4c(N[C@H]5C[C@@H](O)C5)nc(OCC56CCCN5CCC6)nc4c3F)ccc(F)c2s1 (atropisomer, axis not shown) [Compound 9] | 1000 to 10000 | > 10 | 1000 to 10000 | – | –
6 | CN1C[C@H](F)C[C@H]1COc1nc(N(C)[C@H]2C[C@@H](O)C2)c2cc(C(F)(F)F)c(-c3ccc(F)c4sc(N)nc34)c(F)c2n1 (atropisomer, axis not shown) [Compound 12] | > 10000 | > 10 | 1000 to 10000 | – | –
7 | CO[C@H]1CN2CCC[C@@]2(COc2nc(N(C)[C@H]3C[C@@H](O)C3)c3cc(C(F)(F)F)c(-c4ccc(F)c5sc(N)nc45)c(F)c3n2)C1 (atropisomer, axis not shown) [Compound 13] | 100 to 1000 | 1 to 10 | 100 to 1000 | – | –
8 | CO[C@H]1CN2CCC[C@]2(COc2nc(N(C)[C@H]3C[C@@H](O)C3)c3cc(C(F)(F)F)c(-c4ccc(F)c5sc(N)nc45)c(F)c3n2)C1 (atropisomer, axis not shown) [Compound 14] | 1000 to 10000 | 1 to 10 | 100 to 1000 | – | –
9 | CO[C@@H]1C[C@@H](COc2nc(N(C)[C@H]3C[C@@H](O)C3)c3cc(C(F)(F)F)c(-c4ccc(F)c5sc(N)nc45)c(F)c3n2)N(C)C1 (atropisomer, axis not shown) [Compound 17] | > 10000 | > 10 | 1000 to 10000 | – | –
10 | Nc1nc2c(-c3c(C(F)(F)F)cc4c(N[C@H]5CC[C@@H](O)C5)nc(OCC56CCCN5CCC6)nc4c3F)ccc(F)c2s1 (atropisomer, axis not shown) [Compound 60] | 1000 to 10000 | > 10 | 1000 to 10000 | – | –
11 | CN(c1nc(OC[C@@]23CCCN2C[C@H](F)C3)nc2c(F)c(-c3ccc(F)c4sc(N)c(C#N)c34)c(C(F)(F)F)cc12)[C@@H]1CCN(C(=O)CC#N)C1 (atropisomer, axis not shown) [Compound 102] | 100 to 1000 | – | – | – | IC50 (GP2d cells (KRAS G12D); pERK HTRF): < 100 nM
12 | CCN(c1nc(OC[C@@]23CCCN2C[C@H](F)C3)nc2c(F)c(-c3ccc(F)c4sc(N)c(C#N)c34)c(C(F)(F)F)cc12)[C@H]1C[C@H](C)N(C(=O)[C@@H](C)OC)C1 (atropisomer, axis not shown) [Compound 763] | – | – | – | – | IC50 ([1]; class symbols): 100 to 1000 nM; IC50 (GP2d cells (KRAS G12D); pERK HTRF, class symbols): < 100 nM; IC50 (SW620 cells (KRAS G12V); [4]): < 100 nM
13 | CN(c1nc(OCC23CCCN2CCC3)nc2c(F)c(-c3ccc(F)c4sc(N)nc34)c(C(F)(F)F)cc12)C1CC(O)C12CCCC2 (single isomer, unassigned) [Compound 11] | > 10000 | – | – | – | –
14 | CN(c1nc(OCC23CCCN2CCC3)nc2c(F)c(-c3ccc(F)c4sc(N)nc34)c(C(F)(F)F)cc12)C1CC(O)C1 (stereo not drawn) [Compound 2] | – | – | – | > 1000 | –
15 | CN(c1nc(OC[C@@]23CCCN2C[C@H](F)C3)nc2c(F)c(-c3ccc(F)c4sc(N)nc34)c(C(F)(F)F)cc12)C1CC(O)C1 (stereo partly drawn) [Compound 8] | – | – | – | 100 to 1000 | –
16 | CN(c1nc(OC[C@@H]2C[C@@H](F)CN2C)nc2c(F)c(-c3ccc(F)c4sc(N)nc34)c(C(F)(F)F)cc12)C1CC(O)C1 (stereo partly drawn) [Compound 12] | – | – | – | > 1000 | –
17 | CO[C@H]1CN2CCC[C@@]2(COc2nc(N(C)C3CC(O)C3)c3cc(C(F)(F)F)c(-c4ccc(F)c5sc(N)nc45)c(F)c3n2)C1 (stereo partly drawn) [Compound 13] | – | – | – | > 1000 | –
18 | CO[C@H]1CN2CCC[C@]2(COc2nc(N(C)C3CC(O)C3)c3cc(C(F)(F)F)c(-c4ccc(F)c5sc(N)nc45)c(F)c3n2)C1 (stereo partly drawn) [Compound 14] | – | – | – | > 1000 | –
19 | CN(c1nc(OCC2(CN3CCOCC3)CC2)nc2c(F)c(-c3ccc(F)c4sc(N)nc34)c(C(F)(F)F)cc12)C1CC(O)C1 (stereo not drawn) [Compound 16] | – | – | – | > 1000 | –
20 | CO[C@@H]1C[C@@H](COc2nc(N(C)C3CC(O)C3)c3cc(C(F)(F)F)c(-c4ccc(F)c5sc(N)nc45)c(F)c3n2)N(C)C1 (stereo partly drawn) [Compound 17] | – | – | – | > 1000 | –
21 | CCN(CCCO)c1nc(OC[C@@]23CCCN2C[C@H](F)C3)nc2c(F)c(-c3ccc(F)c4sc(N)c(C#N)c34)c(C(F)(F)F)cc12 [Compound 75] | 100 to 1000 | – | – | – | IC50 (GP2d cells (KRAS G12D); pERK HTRF): < 100 nM
22 | CN(c1nc(OCC2(CN3CCOCC3)CC2)nc2c(F)c(-c3ccc(F)c4sc(N)c(C#N)c34)c(C(F)(F)F)cc12)C1CC(O)C1 (stereo not drawn) [Compound 122] | – | – | – | < 100 | –
23 | CN(c1nc(OC[C@@]23CCCN2C[C@H](F)C3)nc2c(F)c(-c3ccc(F)c4sc(N)c(C#N)c34)c(C(F)(F)F)cc12)C1CC(F)C1 (stereo partly drawn) [Compound 160] | – | – | – | < 100 | –
24 | CN(c1nc(OC[C@@]23CCCN2C[C@H](F)C3)nc2c(F)c(-c3ccc(F)c4sc(N)c(C#N)c34)c(C(F)(F)F)cc12)C1(CC#N)CC(O)C1 (stereo partly drawn) [Compound 249] | – | – | – | 100 to 1000 | IC50 (SW620 cells (KRAS G12V); SW620 (KRAS G12V) cells, pERK HTRF): 100 to 1000 nM
25 | CCN(c1nc(OC[C@@]23CCCN2C[C@H](F)C3)nc2c(F)c(-c3ccc(F)c4sc(N)c(C#N)c34)c(C(F)(F)F)cc12)[C@H]1CCN(C(=O)OC2CC(OC)C2)C1 (stereo partly drawn) [Compound 792] | – | – | – | – | IC50 ([1]; class symbols): < 100 nM; IC50 (GP2d cells (KRAS G12D); pERK HTRF, class symbols): < 100 nM; IC50 (SW620 cells (KRAS G12V); [4]): < 100 nM
26 | CCN(c1nc(OC[C@@]23CCCN2C[C@H](F)C3)nc2c(F)c(-c3ccc(F)c4sc(N)c(C#N)c34)c(C(F)(F)F)cc12)C1CC(C(=O)N(C)C)C1 (stereo partly drawn) [Compound 950] | – | – | – | – | IC50 (GP2d cells (KRAS G12D); GP2d): < 100 nM; IC50 (SW620 cells (KRAS G12V); Homo sapiens, SW-620, SW620 (KRAS G12V) cells): < 100 nM
